In PubChem BioAssay AID2060627 (Molecular Pharmacology Branch, DTP, NCI, 2025):
Values joined by “and” are separate entries in the source; they are usually repeats but may differ in a detail not shown here. Equal entries are not always repeated.

Test system: 156681-154-R-J1-PDC complex spheroid viability
Experiment: Anticancer human tumor 156681-154-R-J1-PDC patient-derived melanoma cell line growth inhibition [CLK]
Details: for viability, T/C: stronger effect = lower value; active = viability on the fitted dose curve at most 10% of control; inactive = the rest
Method in brief: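 Patient-derived tumor cells grown as complex spheroids with HUVEC endothelial cells and mesenchymal stem cells, treated with drug combinations. Concentrations descend in half-log steps from near clinical Cmax, or from 10 microM if Cmax unknown.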

[1] = curve of first compound, second compound 0.0316 µM
[2] = curve of first compound, second compound 0.1 µM
[3] = curve of first compound, second compound 0.316 µM
[4] = curve of first compound, second compound 1 µM
[5] = curve of first compound, second compound 3.16 µM
[6] = curve of first compound, second compound 10 µM
[7] = second compound 0.0316 µM, first compound 0.0316 µM
[8] = second compound 0.0316 µM, first compound 0.1 µM
[9] = second compound 0.0316 µM, first compound 0.316 µM
[10] = second compound 0.0316 µM, first compound 1 µM
[11] = second compound 0.1 µM, first compound 0.0316 µM
[12] = second compound 0.1 µM, first compound 0.1 µM
[13] = second compound 0.1 µM, first compound 0.316 µM
[14] = second compound 0.1 µM, first compound 1 µM
[15] = second compound 0.316 µM, first compound 0.0316 µM
[16] = second compound 0.316 µM, first compound 0.1 µM
[17] = second compound 0.316 µM, first compound 0.316 µM
[18] = second compound 0.316 µM, first compound 1 µM
[19] = second compound 1 µM, first compound 0.0316 µM
[20] = second compound 1 µM, first compound 0.1 µM
[21] = second compound 1 µM, first compound 0.316 µM
[22] = second compound 1 µM, first compound 1 µM
[23] = second compound 3.16 µM, first compound 0.0316 µM
[24] = second compound 3.16 µM, first compound 0.1 µM
[25] = second compound 3.16 µM, first compound 0.316 µM
[26] = second compound 3.16 µM, first compound 1 µM
[27] = second compound 10 µM, first compound 0.0316 µM
[28] = second compound 10 µM, first compound 0.1 µM
[29] = second compound 10 µM, first compound 0.316 µM
[30] = second compound 10 µM, first compound 1 µM
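Note: spheroids exposed to the agents for seven days.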
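Throughout, for viability, T/C: 100% = DMSO vehicle control viability.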

CCc1c2c(nc3ccc(O)cc13)-c1cc3c(c(=O)n1C2)COC(=O)[C@]3(O)CC + CN1CCN(c2cc(C(=O)Nc3cc4cc(-c5cnn(C)c5)ccc4cn3)ccn2)CC1
inactive: viability, T/C (second compound 0.0316 µM, first compound 0.00316 µM) 42.5% | viability, T/C (second compound 0.0316 µM, first compound 0.01 µM) 14.9% | viability, T/C [7] 15% | viability, T/C [8] 16.9% | viability, T/C [9] 17.2% | viability, T/C [10] 4.31% | viability, T/C (second compound 0.1 µM, first compound 0.00316 µM) 24.5% | viability, T/C (second compound 0.1 µM, first compound 0.01 µM) 15.2% | viability, T/C [11] 12.1% | viability, T/C [12] 16.4% | viability, T/C (second compound 0.316 µM, first compound 0.00316 µM) 12.3% | viability, T/C (second compound 0.316 µM, first compound 0.01 µM) 12.3%
active: viability, T/C [13] 13.9% | viability, T/C [14] 2.11% | viability, T/C [15] 14.7% | viability, T/C [16] 5.42% | viability, T/C [17] 1.97% | viability, T/C [18] 1.05% | viability, T/C (second compound 1 µM, first compound 0.00316 µM) 0.13% | viability, T/C (second compound 1 µM, first compound 0.01 µM) 0.25% | viability, T/C [19] 0.33% | viability, T/C [20] 2.85% | viability, T/C [21] 2.44% | viability, T/C [22] 0.97% | viability, T/C (second compound 3.16 µM, first compound 0.00316 µM) 0.1% | viability, T/C (second compound 3.16 µM, first compound 0.01 µM) 2.44% | viability, T/C [23] 1.86% | viability, T/C [24] 0.73% | viability, T/C [25] 1.39% | viability, T/C [26] 0.88% | viability, T/C (second compound 10 µM, first compound 0.00316 µM) 0.64% | viability, T/C (second compound 10 µM, first compound 0.01 µM) 3.44% | viability, T/C [27] 2.3% | viability, T/C [28] 1.35% | viability, T/C [29] 2.63% | viability, T/C [30] 2.01%
< 3.16 nM: IC50 [1] | IC50 [2] | IC50 [3] | IC50 [4] | IC50 [5] | IC50 [6]

Nc1ccn(C2OC(CO)C(O)C2(F)F)c(=O)n1 (stereo unspecified)
< 31.6 nM: IC50 (curve of compound)
inactive: viability, T/C (compound 0.0316 µM) 14.4% and 13.7% | viability, T/C (compound 0.1 µM) 13.7% and 12.6% | viability, T/C (compound 0.316 µM) 15.7% and 16.1% | viability, T/C (compound 1 µM) 12.8% and 13.2% | viability, T/C (compound 3.16 µM) 16.9% and 14.6% | viability, T/C (compound 10 µM) 13.1% and 14.5%

CCCS(=O)(=O)Nc1ccc(F)c(C(=O)c2c[nH]c3ncc(-c4ccc(Cl)cc4)cc23)c1F + CNC(=O)c1ccc(Nc2nc(OC3CCCC3)c3c(-c4ccc5nc(C)oc5c4)c[nH]c3n2)c(OC)c1
active: viability, T/C (second compound 0.0316 µM, first compound 10 µM) 8.32%
2090 nM: IC50 [3]
4960 nM: IC50 [1]
3870 nM: IC50 [2]
< 31.6 nM: IC50 [4] | IC50 [5] | IC50 [6]
inactive: viability, T/C [7] 69% | viability, T/C [8] 81.1% | viability, T/C [9] 70.7% | viability, T/C [10] 113% | viability, T/C (second compound 0.0316 µM, first compound 3.16 µM) 76.8% | viability, T/C [11] 54.8% | viability, T/C [12] 57.4% | viability, T/C [13] 72.1% | viability, T/C [14] 63% | viability, T/C (second compound 0.1 µM, first compound 3.16 µM) 58.2% | viability, T/C (second compound 0.1 µM, first compound 10 µM) 10.1% | viability, T/C [15] 48% | viability, T/C [16] 58.8% | viability, T/C [17] 62.3% | viability, T/C [18] 58.7% | viability, T/C (second compound 0.316 µM, first compound 3.16 µM) 46.1% | viability, T/C (second compound 0.316 µM, first compound 10 µM) 14.4% | viability, T/C [19] 45.8% | viability, T/C [20] 48.7% | viability, T/C [21] 42.8% | viability, T/C [22] 40.3% | viability, T/C (second compound 1 µM, first compound 3.16 µM) 39.1% | viability, T/C (second compound 1 µM, first compound 10 µM) 12.5% | viability, T/C [23] 41.1% | viability, T/C [24] 29.7% | viability, T/C [25] 33.5% | viability, T/C [26] 34% | viability, T/C (second compound 3.16 µM, first compound 3.16 µM) 36.2% | viability, T/C (second compound 3.16 µM, first compound 10 µM) 13.8% | viability, T/C [27] 34.9% | viability, T/C [28] 34.3% | viability, T/C [29] 22.1% | viability, T/C [30] 32.5% | viability, T/C (second compound 10 µM, first compound 3.16 µM) 23.4% | viability, T/C (second compound 10 µM, first compound 10 µM) 12.2%
